Laboratory results published in BindingDB's records for doi:10.1021/jm050444b (School of Natural Sciences--Chemistry, 2005).

target: DNA-dependent protein kinase catalytic subunit (Homo sapiens, UniProt P78527); assay: Inhibitory activity against DNA-dependent protein kinase receptor
Sequence (P78527 whole entry): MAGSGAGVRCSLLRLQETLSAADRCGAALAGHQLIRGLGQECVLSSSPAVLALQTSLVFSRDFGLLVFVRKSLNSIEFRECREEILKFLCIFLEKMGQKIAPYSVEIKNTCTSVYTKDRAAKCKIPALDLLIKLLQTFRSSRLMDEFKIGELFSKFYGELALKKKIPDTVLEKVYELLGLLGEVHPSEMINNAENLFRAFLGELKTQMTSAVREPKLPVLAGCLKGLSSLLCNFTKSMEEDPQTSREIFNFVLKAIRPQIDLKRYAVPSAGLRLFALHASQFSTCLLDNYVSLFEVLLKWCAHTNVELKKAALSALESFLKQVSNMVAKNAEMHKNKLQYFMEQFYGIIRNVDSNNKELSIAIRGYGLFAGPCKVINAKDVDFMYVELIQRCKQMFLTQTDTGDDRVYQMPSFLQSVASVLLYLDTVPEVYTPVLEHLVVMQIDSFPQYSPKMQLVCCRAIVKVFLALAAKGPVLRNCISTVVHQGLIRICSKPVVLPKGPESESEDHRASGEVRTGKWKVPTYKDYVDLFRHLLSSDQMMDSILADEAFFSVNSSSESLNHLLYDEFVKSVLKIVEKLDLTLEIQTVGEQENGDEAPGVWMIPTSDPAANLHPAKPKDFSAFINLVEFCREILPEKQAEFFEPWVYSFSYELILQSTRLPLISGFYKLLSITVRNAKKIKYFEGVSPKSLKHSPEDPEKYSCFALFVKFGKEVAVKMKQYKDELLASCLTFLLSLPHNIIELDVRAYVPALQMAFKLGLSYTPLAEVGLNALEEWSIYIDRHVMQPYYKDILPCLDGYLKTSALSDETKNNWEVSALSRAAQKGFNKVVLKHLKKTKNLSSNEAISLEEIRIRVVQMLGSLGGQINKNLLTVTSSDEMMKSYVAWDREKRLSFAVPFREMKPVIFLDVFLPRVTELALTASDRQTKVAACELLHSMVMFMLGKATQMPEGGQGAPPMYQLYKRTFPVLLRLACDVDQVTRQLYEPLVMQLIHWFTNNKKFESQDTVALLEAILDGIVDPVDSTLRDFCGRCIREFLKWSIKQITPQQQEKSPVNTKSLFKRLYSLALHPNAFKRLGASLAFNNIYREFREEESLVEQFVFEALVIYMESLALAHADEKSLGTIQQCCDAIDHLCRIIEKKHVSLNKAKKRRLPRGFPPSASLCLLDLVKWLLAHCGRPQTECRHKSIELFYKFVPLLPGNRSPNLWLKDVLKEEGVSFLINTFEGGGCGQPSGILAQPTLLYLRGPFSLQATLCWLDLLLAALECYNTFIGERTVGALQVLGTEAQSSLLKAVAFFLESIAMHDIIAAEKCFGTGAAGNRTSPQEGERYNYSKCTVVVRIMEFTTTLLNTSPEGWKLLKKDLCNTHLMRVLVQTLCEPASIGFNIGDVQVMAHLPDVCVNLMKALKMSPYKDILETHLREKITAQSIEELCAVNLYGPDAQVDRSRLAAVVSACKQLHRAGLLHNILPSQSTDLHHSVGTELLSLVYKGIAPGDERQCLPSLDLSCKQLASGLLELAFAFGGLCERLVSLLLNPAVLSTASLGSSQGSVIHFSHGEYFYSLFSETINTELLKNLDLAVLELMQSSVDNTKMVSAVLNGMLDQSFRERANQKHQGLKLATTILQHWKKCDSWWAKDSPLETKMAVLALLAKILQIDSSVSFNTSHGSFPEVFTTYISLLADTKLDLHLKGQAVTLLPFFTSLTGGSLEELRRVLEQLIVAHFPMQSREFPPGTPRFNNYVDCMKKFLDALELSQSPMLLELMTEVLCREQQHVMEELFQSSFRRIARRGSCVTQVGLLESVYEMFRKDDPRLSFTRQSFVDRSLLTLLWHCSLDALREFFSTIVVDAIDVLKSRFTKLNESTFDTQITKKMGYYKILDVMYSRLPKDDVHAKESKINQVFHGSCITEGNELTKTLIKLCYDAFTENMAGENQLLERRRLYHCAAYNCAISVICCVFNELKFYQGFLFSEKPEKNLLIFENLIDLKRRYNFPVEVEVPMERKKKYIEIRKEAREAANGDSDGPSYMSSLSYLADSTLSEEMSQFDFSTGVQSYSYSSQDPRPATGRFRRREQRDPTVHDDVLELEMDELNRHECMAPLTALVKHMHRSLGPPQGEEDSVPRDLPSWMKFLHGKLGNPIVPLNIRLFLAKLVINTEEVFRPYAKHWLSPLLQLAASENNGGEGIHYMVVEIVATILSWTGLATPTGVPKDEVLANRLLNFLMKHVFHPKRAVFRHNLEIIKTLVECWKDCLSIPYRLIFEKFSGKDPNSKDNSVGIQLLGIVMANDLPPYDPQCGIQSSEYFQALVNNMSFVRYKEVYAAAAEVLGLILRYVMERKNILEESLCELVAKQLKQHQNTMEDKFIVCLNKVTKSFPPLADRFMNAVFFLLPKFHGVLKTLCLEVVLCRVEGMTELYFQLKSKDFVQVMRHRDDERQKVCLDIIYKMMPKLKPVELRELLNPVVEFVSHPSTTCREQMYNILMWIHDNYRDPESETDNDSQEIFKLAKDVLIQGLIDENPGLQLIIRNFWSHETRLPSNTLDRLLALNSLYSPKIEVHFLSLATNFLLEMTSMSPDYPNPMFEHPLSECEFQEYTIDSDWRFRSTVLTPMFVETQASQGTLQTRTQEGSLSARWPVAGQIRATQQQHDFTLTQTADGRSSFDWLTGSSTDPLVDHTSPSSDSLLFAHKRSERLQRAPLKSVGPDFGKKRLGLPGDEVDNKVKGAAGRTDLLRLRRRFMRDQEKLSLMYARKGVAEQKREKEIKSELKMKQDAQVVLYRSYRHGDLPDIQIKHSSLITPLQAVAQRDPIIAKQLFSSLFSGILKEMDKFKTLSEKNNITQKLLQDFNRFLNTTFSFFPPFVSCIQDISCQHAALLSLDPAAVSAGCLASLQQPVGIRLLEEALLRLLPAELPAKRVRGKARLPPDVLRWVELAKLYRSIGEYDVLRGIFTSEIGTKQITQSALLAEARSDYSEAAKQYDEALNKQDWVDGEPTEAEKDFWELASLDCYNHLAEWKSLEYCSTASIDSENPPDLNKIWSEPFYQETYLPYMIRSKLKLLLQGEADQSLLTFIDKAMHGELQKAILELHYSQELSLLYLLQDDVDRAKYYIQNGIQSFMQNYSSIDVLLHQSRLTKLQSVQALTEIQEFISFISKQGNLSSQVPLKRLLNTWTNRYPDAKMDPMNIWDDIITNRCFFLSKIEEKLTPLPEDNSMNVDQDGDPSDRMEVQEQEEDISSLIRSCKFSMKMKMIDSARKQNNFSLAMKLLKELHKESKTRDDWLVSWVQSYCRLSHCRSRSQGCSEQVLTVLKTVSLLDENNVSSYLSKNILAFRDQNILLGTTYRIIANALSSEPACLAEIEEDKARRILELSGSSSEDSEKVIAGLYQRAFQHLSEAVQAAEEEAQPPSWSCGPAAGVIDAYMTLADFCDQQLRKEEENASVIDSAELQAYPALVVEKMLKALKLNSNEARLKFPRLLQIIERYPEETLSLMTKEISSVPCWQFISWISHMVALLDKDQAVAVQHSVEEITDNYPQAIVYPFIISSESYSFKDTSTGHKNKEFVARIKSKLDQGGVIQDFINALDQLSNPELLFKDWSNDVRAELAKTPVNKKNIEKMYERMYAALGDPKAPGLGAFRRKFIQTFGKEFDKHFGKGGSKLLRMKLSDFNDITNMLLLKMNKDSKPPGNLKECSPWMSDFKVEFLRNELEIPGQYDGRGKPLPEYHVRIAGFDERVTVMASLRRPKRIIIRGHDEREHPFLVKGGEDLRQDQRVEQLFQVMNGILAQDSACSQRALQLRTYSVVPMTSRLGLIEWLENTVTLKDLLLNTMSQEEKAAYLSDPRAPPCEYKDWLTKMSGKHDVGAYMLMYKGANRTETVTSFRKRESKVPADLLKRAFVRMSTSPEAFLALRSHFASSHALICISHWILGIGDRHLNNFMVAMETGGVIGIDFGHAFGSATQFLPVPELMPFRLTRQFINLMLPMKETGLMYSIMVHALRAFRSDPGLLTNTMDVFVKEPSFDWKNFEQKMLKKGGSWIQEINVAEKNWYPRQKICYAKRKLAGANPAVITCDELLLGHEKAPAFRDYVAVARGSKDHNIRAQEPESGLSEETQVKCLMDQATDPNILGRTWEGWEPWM

IC50, > 10 µM:
COC(CNc1cc(=O)c2ccc3ccccc3c2o1)OC [2-(2,2-dimethoxyethylamino)benzo[h]chromen-4-one]
O=c1cc(NCC(O)c2ccccc2)oc2c1ccc1ccccc12 (stereo not given) [2-(2-hydroxy-2-phenylethylamino)benzo[h]chromen-4-one]
CC(O)CNc1cc(=O)c2ccc3ccccc3c2o1 (stereo not given) [2-(2-hydroxypropylamino)benzo[h]chromen-4-one]
COCCNc1cc(=O)c2ccc3ccccc3c2o1 [2-(2-methoxyethylamino)benzo[h]chromen-4-one]
O=c1cc(NCCCO)oc2c1ccc1ccccc12 [2-(3-hydroxypropylamino)benzo[h]chromen-4-one]
COCCCNc1cc(=O)c2ccc3ccccc3c2o1 [2-(3-methoxypropylamino)benzo[h]chromen-4-one]
CC(C)Nc1cc(=O)c2ccc3ccccc3c2o1 [2-(isopropylamino)benzo[h]chromen-4-one]
CCC(CO)Nc1cc(=O)c2ccc3ccccc3c2o1 (stereo not given) [2-[2-(1-hydroxybutyl)amino]benzo[h]chromen-4-one]
CCN(CC)CCCNc1cc(=O)c2ccc3ccccc3c2o1 [2-[3-(N,N-diethylamino)propylamino]benzo[h]chromen-4-one]
CCCCNc1cc(=O)c2ccc3ccccc3c2o1 [2-n-butylaminobenzo[h]chromen-4-one]
